Experimental data reported in patent US5521200A, “2-oxo-pyrrolo[1,2-A]benzimidazole-3-carboxyl derivatives useful in treating central nervous system disorders” (priority 1994, dated 1996).

How the values were obtained:
[1] = test system: adult male rat (conflict behavior suppressed by punishment); experiment: Suppression of anxiety in the adult male rat (Conflict, Vogel); type: in vivo; details: ip, minimum effective dose, greater than 10 = active dose not determined, read-out: Conflict MED
Source text: The experiment was run the next day.

[2] = target: benzodiazepine site of the GABA-A receptor; experiment: Benzodiazepine Receptor Binding Assay (inhibition of 3H-flunitrazepam binding); details: ca. 3 nM 3H-flunitrazepam, 10-20 min at 25° C., membranes; over 10,000 = not active
[3] = test system: metrazol-induced convulsions in mice; experiment: Suppression of Metrazol-Induced Convulsions; type: in vivo, mouse (male CD1 mice); details: Mus musculus, ip, sc metrazol CD90, block of clonic convulsions, greater than 30 = active dose not determined

Structure (SMILES)	minimal effective dose [1] [mg/kg]	IC50 [2] [µM]	ED50 [3] [mg/kg]
O=C1CN2C(=C1C(=O)Nc1ccc(F)cc1F)Nc1ccccc12 [CP #8, N-(2,4-Difluorophenyl)-1,2-dihydro-2-oxo-4H-pyrrolo[1,2-a]benzimidazole-3-carboxamide]	> 10	> 10	–
CN1C2=C(C(=O)Nc3c(F)cccc3F)C(=O)C(C)(C)N2c2ccccc21 [CP #6, N-(2,6-Difluorophenyl)-1,2-dihydro-1,1,4-trimethyl-4H-pyrrolo[1,2-a]benzimidazole-3-carbozamide-2(1H) one]	> 10	> 10	1 to 10
O=C1CN2C(=C1C(=O)Nc1cc(F)ccc1F)Nc1ccccc12 [CP #3, N-(2,5-Difluorophenyl)-1,2-dihydro-2-oxo-4H-pyrrolo[1,2-a]benzimidazole-3-carboxamide]	> 10	> 10	–
CN(C)c1ccc(NC(=O)C2=C3Nc4ccccc4N3CC2=O)cc1 [CP #2, N-(4-Dimethylaminophenyl)-1,2-dihydro-2-oxo-4H-pyrrolo[1,2-a]benzimidazole-3-carboxamide]	> 10	1.74	> 30
O=C1CN2C(=C1C(=O)Nc1c(F)cccc1F)Nc1ccccc12 [CP #5, N-(2,6-Difluorophenyl)-1,2-dihydro-2-oxo-4H-pyrrolo[1,2-a]benzimidazole-3-carboxamide]	< 10	0.0801	6
O=C1CN2C(=C1C(=O)Nc1ccncc1)Nc1ccccc12 [CP #1, N-(4-Pyridyl)-1,2-dihydro-4H-pyrrolo[1,2-a]benzimidazole-3-carboxamide-2(1H)-one]	> 10	7.22	> 10
CCN1C2=C(C(=O)Nc3c(F)cccc3F)C(=O)CN2c2ccccc21 [CP #7, N-(2,6-Difluorophenyl)-1,2-dihydro-4-ethyl-4H-pyrrolo[1,2-a]benzimidazole-3-carboxamide-2(1H)-one]	> 10	> 10	> 10
